Experimental data taken from patent US11685733B2, “Compounds for treating Rac-GTPase mediated disorder” (Children's Medical Center Corporation, priority 2018, dated 2023).
“Also recorded” adds a separate entry of the source.

How the values were obtained:
[1] = tested on: SEM, RS4,11, and P12 leukemia cell lines; experiment: Inhibition of proliferation in three leukemia cell lines; assay type: cell-based; settings: Homo sapiens; range over SEM, RS4,11 and P12 cell lines
Experimental: Compound 1 was assayed for inhibition of proliferation in three leukemia cell lines, i.e., (1) SEM, (2) RS4,11, and (3) P12 by […]. The cells for the proliferation assay were spun down and re-suspended. The cell suspension was then divided and Compound 1 was added in desired concentrations and subsequently plated. Following an incubation period, the […] (Promega CellTiter 96® Aqueous Non-Radioactive Cell Proliferation Assay) was added and allowed to incubate. The absorbance is subsequently measured at 490 nm using a plate reader.

SEM cell line = experiment: Flow based Annexin V apoptosis and cell death assay; set-up: species or system human; settings: Annexin V kit
From the text: Compound 1 was further analyzed for its effect on cell apoptosis and cell death using a flow based assay using Annexin V kit.

Rac = experiment: Pull down assay of Rac activation with Western blot; assay type: cell-based, human; settings: SEM cell line
Experimental: Further, a biochemical pull down assay using the SEM cell line was performed to confirm specific inhibition of Rac activation by Compound 1 as indicated by disruption of the interaction between Rac and GTPase. The assay initially required treatment of cells followed by pull down and analysis with Western blot. The cells were first starved in serum free media for 2 hours. They were then re-suspended in serum-containing medium. NSC23766 and Compound 1 were added at desired concentrations. Following incubation for the desired length of time, the cells were pelleted and lysed with Magnesium Lysis Buffer (Millipore Mg^2+ lysis/wash buffer).

[2] = tested on: mononuclear bone marrow cells from WT mice; experiment: Colony forming unit assay (CFU assay) for toxicity; assay type: cell-based
Experimental: The formulation obtained in Example 2 was used for evaluating the toxicity of Compound 1 in a colony forming unit assay (CFU assay), which was performed by plating mononuclear bone marrow cells from WT mice in methylcellulose media supplemented with different doses of Compound 1, NSC23766, and DMSO. The number of colonies formed in each condition was scored 7 days after plating.

P12 xenograft = experiment: Anti-leukemia activity in mouse model of human leukemia (bioluminescence imaging, mCherry cells in bone marrow); assay type: in vivo, mice; settings: 10 mg/kg and 100 mg/kg
Experimental: (§1) Bioluminecence imaging (BLI) analysis was performed by treating a mouse model (8 mice) of human leukemia (P12 xenograft) with two different doses of Compound 1 (i.e., 10 and 100 mg/kilogram of body weight) using the formulation obtained in Example 2. P12 cells were transduced with a vector encoding for Luciferase and mCherry as a fluorescent marker. Treatment was started 5 days after inoculation of the cell line, and carried out by oral gavage for 18 days twice a day. Mice were imaged twice a week to obtain a quantification of the disease burden.

[3] = Relative weight of mice during the efficacy study; assay type: in vivo; settings: 10 mg/kg and 100 mg/kg, normalized to average weight before treatment
Experimental: as §1

[4] = tested on: sensitive leukemic cell lines; experiment: Induction of apoptosis in leukemic cell lines
[5] = tested on: P12 cells with NRAS G12D mutation

IC50 [1] [µM]	Compound	cell apoptosis and cell death (SEM cell line)	total Rac levels (Rac)	Rac activation (Rac; pull down)	concentration up to which no toxicity toward clonogenic progenitor bone marrow cells was seen ([2]; colonies scored 7 days after plating) [µM]	concentration without toxicity relative to the IC50 ([2]; fold the IC50) [fold]	mCherry positive cells in the bone marrow (P12 xenograft; fold change to the vehicle group)	bioluminescence (disease burden) (P12 xenograft; oral gavage twice a day for 18 days)	relative weight of the mice [3]	apoptosis [4]	PDE6D/ARL2/3-dependent trafficking of RAS [5]
0.8 to 7	O=C(CCc1nnc(CCc2c[nH]c3ccccc23)o1)N1CCN(c2ccc(F)cc2)CC1 [Compound 1, 1-[4-(4-fluorophenyl)piperazin-1-yl]-3-{5-[2-(1H-indol-3-yl)ethyl]-1,3,4-oxadiazol-2-yl}propan-1-one]	caused cells apoptosis and cell death in the SEM cell line in a dose-dependent manner	no significant effect on total Rac levels	significant reduction of Rac activation; also recorded: dose dependent reduction of Rac activation	~100	> 100	effectively inhibit proliferation	significantly reduced the bioluminescence	relatively stable over the course of treatment	–	–
–	CCc1ccc(CN(C)C(=O)CCc2nnc(CCc3c[nH]c4ccccc34)o2)cc1 [Compound 5]	–	–	–	–	–	–	–	–	induced apoptosis	affected PDE6D/ARL2/3-dependent trafficking of RAS
